# Source: paper PMC11407758, “Integrated stress response (ISR) activation and apoptosis through HRI kinase by PG3 and other p53 pathway-restoring cancer therapeutics” (Oncotarget, 2024)
# Like-named read-outs stand apart in the source and are kept apart here.
# Key:
# [1] = system: HFF-1 (human foreskin fibroblast cell with wild-type p53); test: Cell viability assay (CellTiterGlo), HFF-1 normal cells; format: cell-based
# Protocol: (§1) Figure 1 PG3 inhibits cell proliferation and growth in a p53-indepent manner. (A–E) Cell viability assay, dose response curves and IC50 value measurements in a panel of cancer cell lines and normal cells. Cells were treated with different concentrations of PG3, PG3-Oc (Oc), obatoclax (Ob), prodigiosin (P) or DMSO for 72 h. Luciferase activity was imaged by the IVIS Imaging System after treatment. Cell viability data were normalized to those of DMSO treatment control in each cell line and data analyses were performed using PRISM4 software. IC50 data are expressed as the mean ±SD (normal; n = 3).
# as §1, with “2 p53-dependent inhibition of” for “1 PG3 inhibits”, “is only observed at specific concentrations. (A–J)” for “and growth in a p53-indepent manner. (A–E)”, “ZMC1, CP-313908, APR-246, Ellipticine, Nutalin-3a” for “PG3, PG3-Oc (Oc), obatoclax (Ob), prodigiosin (P)”
# (§2) Cells were seeded in 96-well plates (6 × 10^3 cells/well). Cells were treated with different concentrations of compounds or dimethyl sulfoxide (DMSO) as a control for 72 hours. The cell viability was assessed by CellTiterGlo bioluminescent cell viability assay (Promega), following the manufacturer’s protocol. Bioluminescence imaging was measured using the IVIS imager. The percentage of cell viability (mean ± SEM) at each dose was calculated against the respective DMSO control. The IC50 values were determined from the sigmoidal dose-response curves using GraphPad Prism.
# [2] = system: MRC5 (human lung fibroblast cell with wild-type p53); test: Cell viability assay (CellTiterGlo), MRC5 normal cells; format: cell-based; conditions: Homo sapiens, MRC5, 72 h, read-out: IC50 values, MRC5 (WT)
# Protocol: as §1
# as §1, with “2 p53-dependent inhibition of” for “1 PG3 inhibits”, “is only observed at specific concentrations. (A–J)” for “and growth in a p53-indepent manner. (A–E)”, “ZMC1, CP-313908, APR-246, Ellipticine, Nutalin-3a” for “PG3, PG3-Oc (Oc), obatoclax (Ob), prodigiosin (P)”
# as §2
# HCT116 (R175H) = test: Cell viability assay (CellTiterGlo), HCT116 R175H; format: cell-based, human; conditions: Homo sapiens, HCT-116; 72 h, CellTiterGlo
# Protocol: as §1
# as §1, with “2 p53-dependent inhibition of” for “1 PG3 inhibits”, “is only observed at specific concentrations. (A–J)” for “and growth in a p53-indepent manner. (A–E)”, “ZMC1, CP-313908, APR-246, Ellipticine, Nutalin-3a” for “PG3, PG3-Oc (Oc), obatoclax (Ob), prodigiosin (P)”
# as §2
# TOV-112D (R175H) = test: Cell viability assay (CellTiterGlo), TOV-112D; format: cell-based, human; conditions: for IC50: Homo sapiens, TOV112D, 72 h
# Protocol: as §1
# as §1, with “2 p53-dependent inhibition of” for “1 PG3 inhibits”, “is only observed at specific concentrations. (A–J)” for “and growth in a p53-indepent manner. (A–E)”, “ZMC1, CP-313908, APR-246, Ellipticine, Nutalin-3a” for “PG3, PG3-Oc (Oc), obatoclax (Ob), prodigiosin (P)”
# as §2
# HCT116 (WT) = test: Cell viability assay (CellTiterGlo), HCT116 WT; format: cell-based, human; conditions: Homo sapiens, HCT-116; 72 h, CellTiterGlo
# Protocol: as §1
# as §1, with “2 p53-dependent inhibition of” for “1 PG3 inhibits”, “is only observed at specific concentrations. (A–J)” for “and growth in a p53-indepent manner. (A–E)”, “ZMC1, CP-313908, APR-246, Ellipticine, Nutalin-3a” for “PG3, PG3-Oc (Oc), obatoclax (Ob), prodigiosin (P)”
# as §2
# PUMA = test: Western blot, PUMA induction; format: cell-based, human; conditions: five cell lines, 24 h
# Protocol: (§3) Figure 4 Activation of ATF4 and up-regulation of typical p53 target genes. (A–E) Western blot analysis of p53 protein levels and upregulation of ATF4, PUMA, DR5 and p21. Cells were treated for 24 h with indicated compounds, concentrations and cell lines. Abbreviations: S.E.: Short exposure; L.E.: Long exposure.
# (§4) After treatment, protein lysates were collected for Western blot analysis. A total of 15 μg of protein was used for SDS-PAGE. After primary and secondary antibody incubations, the signal was detected by a chemiluminescence detection kit, imaged by Syngene (Imgen Technologies). Antibodies for NAG-1 (GDF15) and P53 were from Santa Cruz Biotechnology; for caspase 8, cleaved caspase 8, caspase 9, caspase 3, cleavage PARP, eIF2α, p-eIF2α (Ser51), CHOP, ATF4, DR5, and PUMA were from Cell Signaling Technology. Noxa and p21 were from Calbiochem. Ran was from BD Biosciences.
# [3] = system: SW480 cells carrying a p53-responsive luciferase reporter; test: p53-responsive reporter assay; format: cell-based, human; conditions: 1.11 μM, 6 hour and 15 hour time points
# Protocol: SW480 cells carrying a p53-responsive luciferase reporter were used for assay of functional restoration of mutant p53. Cells were seeded in 96-well plates (5 × 10^4 cells/well) and were treated with compounds indicated for 6 and 15 h, respectively. Then, D-luciferin was added to each well with final concentration 100 μg/mL, and cells were imaged by using an IVIS Imaging System to detect luciferase activity.
# p53-mutant SW480 human colon cancer cells, stably expressing a p53-responsive luciferase reporter, were used to assay functional restoration p53 pathway-dependent transcription in mutant p53-expressing tumor cells. Cells were seeded in 96-well plates (5 × 10^4 cells/well) and were treated with small-molecule compounds for 6 and 15 h, respectively. Then, D-luciferin was added to each well at a final concentration of 100 μg/mL, and cells were imaged by using an IVIS Imaging System (Xenogen) to detect luciferase activity.
# p21 = test: Western blot, p21 induction; format: cell-based, human; conditions: five cell lines, 24 h
# Protocol: as §3, §4
# [4] = system: cleaved caspase-8, -3, cleaved PARP and PUMA in HT29, SW480 and HCT116 p53−/− cells; test: Western blot, apoptosis markers in PG3-treated cells; format: cell-based, human
# Protocol: Figure 5 PG3 induces apoptosis in p53-null and p53-mutant cancer cell lines. (A–E) Dose-response and time-course analysis of cleavage of caspase-8, -3, cleaved PARP and PUMA in PG3-treated HT29, SW480 and HCT116 p53^−/− cells by western blot using the indicated antibodies. (F–H) Flowcytometry analysis of cell death. (I) HT29 and HT29-PUMA^−/− and (J) SW480 cells were co-treated with PG3 and pan-caspase inhibitor Z-VAD-fmk for 48 h. (K) HCT116 p53^−/− cell were co-treated with PG3 and Z-VAD-fmk for 24 hours.
# as §4
# HT29 (R273H) = test: Cell viability assay (CellTiterGlo), HT29; format: cell-based, human; conditions: Homo sapiens, HT-29; 72 h, CellTiterGlo
# Protocol: as §1
# as §1, with “2 p53-dependent inhibition of” for “1 PG3 inhibits”, “is only observed at specific concentrations. (A–J)” for “and growth in a p53-indepent manner. (A–E)”, “ZMC1, CP-313908, APR-246, Ellipticine, Nutalin-3a” for “PG3, PG3-Oc (Oc), obatoclax (Ob), prodigiosin (P)”
# as §2
# ATF4 = test: Western blot, ATF4 induction; format: cell-based, human; conditions: five cancer cell lines, 24 h
# Protocol: as §3, §4
# HCT116 (P53−/−) = test: Cell viability assay (CellTiterGlo), HCT116 p53-/-; format: cell-based, human; conditions: Homo sapiens, HCT-116; 72 h, CellTiterGlo
# Protocol: as §1
# as §1, with “2 p53-dependent inhibition of” for “1 PG3 inhibits”, “is only observed at specific concentrations. (A–J)” for “and growth in a p53-indepent manner. (A–E)”, “ZMC1, CP-313908, APR-246, Ellipticine, Nutalin-3a” for “PG3, PG3-Oc (Oc), obatoclax (Ob), prodigiosin (P)”
# as §2
smiles,measurement,setting,value
CCc1c(C)[nH]c(/C=C2\N=C(c3ccc[nH]3)C=C2OC)c1C [PG3],fold less toxic than PG3-Oc,[1]; HFF-1 normal cells,3.4 fold
same,IC50,"[1]; Homo sapiens, HFF-1, 72 h, CellTiterGlo, normal cells, read-out: IC50 values, HFF-l (WT)",1050 nM
same,IC50,[2],2230 nM
same,IC50,HCT116 (R175H),66 nM
same,IC50,"TOV-112D (R175H); CellTiterGlo, read-out: IC50 values, TOV-1120 (R175H) (converted)",126 nM
same,IC50,"TOV-112D (R175H); unit inferred, 'within the nanomolar range', read-out: IC50 value, TOV-112D",120 nM
same,fold less potent than PG3-Oc,TOV-112D (R175H); TOV-112D,3.3 fold
same,IC50,HCT116 (WT),71 nM
same,upregulation of PUMA,PUMA,consistently induce upregulation
same,p53-responsive reporter activity,[3],do not activate reporter activity
same,upregulation of p21,p21,consistently induce upregulation
same,"time at which cleavage of PARP, caspase-8 and -3 occurs","[4]; HT29, HCT116 p53–/– and SW480",48 h
same,concentration sufficient to induce PUMA and activate cleaved caspase-8 and -3 and cleaved-PARP,"[4]; HT29 and SW480 cells, dose-response",0.5 µM
same,caspase-9 activation,[4]; HT29 cells,does not activate caspase-9
same,time at which PUMA protein is first induced,[4]; time-course,24 h
same,IC50,HT29 (R273H),36 nM
same,upregulation of ATF4,ATF4,induce upregulation of ATF4
same,IC50,HCT116 (P53−/−),52 nM
